The values below are quoted from earlier work in patent US20260256955A1, “LIQUID COMPOSITION OF COMPOUND I, PREPARATION METHOD THEREFOR, AND APPLICATION THEREOF” (BEIJING SINOTAU PHARMACEUTICAL TECHNOLOGY CO., LTD, priority 2022, published 2026).

Molecules are shown by their SMILES.

For this data set the following is noted: animals.

With `CC(C)(C)n1ncc(OCc2cccc(Cn3cc(COCCOCC[18F])nn3)c2)c(Cl)c1=O` [Compound I, 2-tert-butyl-4-chloro-5-((3-((4-((2-(2-fluoro[^18F]ethoxy)ethoxy)methyl)-1H-1,2,3-triazol-1-yl)methyl)benzyl)oxy)pyridazin-3(2H)-one], under “15 minutes post-injection”, the cardiac uptake result is recorded as “high” and the liver uptake entry is given as “low”. Also, the heart-to-liver ratio result (after 60 minutes) is “favorable”.
